# Test results from ChEMBL document CHEMBL4665648, “Potent and selective inhibitors of receptor-interacting protein kinase 1 that lack an aromatic back pocket group” (Bioorg Med Chem Lett, 2019).
# How the values were obtained:
# [1] = target: NUAK family SNF1-like kinase 1 (Homo sapiens) (UniProt O60285); assay: Inhibition of recombinant human His-tagged full length ARK5 expressed in baculovirus expression system using CHKtide as substrate at 10 uM incubated for 60 mins by Adapta assay relative to control
# [2] = target: Dual specificity protein kinase CLK1 (Homo sapiens) (UniProt P49759); assay: Inhibition of recombinant human GST-tagged CLK1 (129 to 484 residues) expressed in Escherichia coli expression system using Ser/Thr 09 as substrate at 10 uM incubated for 60 mins by Z'-Lyte assay relative to control
# Sequence of Dual specificity protein kinase CLK1 (Homo sapiens) (P49759 whole entry, looked up, the tested form may be a part): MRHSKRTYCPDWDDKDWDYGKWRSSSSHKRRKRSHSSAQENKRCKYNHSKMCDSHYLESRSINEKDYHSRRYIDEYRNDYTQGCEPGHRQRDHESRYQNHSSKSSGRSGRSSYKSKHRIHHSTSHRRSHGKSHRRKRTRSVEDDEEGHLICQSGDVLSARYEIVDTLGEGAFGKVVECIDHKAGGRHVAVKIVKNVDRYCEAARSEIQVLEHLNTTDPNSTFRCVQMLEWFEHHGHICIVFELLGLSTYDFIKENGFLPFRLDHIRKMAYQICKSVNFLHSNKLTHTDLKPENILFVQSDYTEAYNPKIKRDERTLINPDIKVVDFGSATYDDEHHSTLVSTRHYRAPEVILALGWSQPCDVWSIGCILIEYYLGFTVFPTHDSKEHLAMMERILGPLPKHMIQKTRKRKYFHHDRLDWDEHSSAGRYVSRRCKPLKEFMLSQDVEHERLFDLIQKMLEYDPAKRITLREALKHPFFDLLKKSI
# [3] = target: Vascular endothelial growth factor receptor 1 (Homo sapiens) (UniProt P17948); assay: Inhibition of recombinant human GST-tagged FLT1 (781 to 1338 residues) expressed in baculovirus expression system using Tyr 04 as substrate at 10 uM incubated for 60 mins by Z'-Lyte assay relative to control
# [4] = target: Casein kinase I isoform epsilon (Homo sapiens) (UniProt P49674); assay: Inhibition of recombinant human His-tagged full length CK1epsilon expressed in baculovirus expression system using Ser/Thr 11 as substrate at 10 uM incubated for 60 mins by Z'-Lyte assay relative to control
# Sequence of Casein kinase I isoform epsilon (Homo sapiens) (P49674 whole entry, looked up, canonical isoform): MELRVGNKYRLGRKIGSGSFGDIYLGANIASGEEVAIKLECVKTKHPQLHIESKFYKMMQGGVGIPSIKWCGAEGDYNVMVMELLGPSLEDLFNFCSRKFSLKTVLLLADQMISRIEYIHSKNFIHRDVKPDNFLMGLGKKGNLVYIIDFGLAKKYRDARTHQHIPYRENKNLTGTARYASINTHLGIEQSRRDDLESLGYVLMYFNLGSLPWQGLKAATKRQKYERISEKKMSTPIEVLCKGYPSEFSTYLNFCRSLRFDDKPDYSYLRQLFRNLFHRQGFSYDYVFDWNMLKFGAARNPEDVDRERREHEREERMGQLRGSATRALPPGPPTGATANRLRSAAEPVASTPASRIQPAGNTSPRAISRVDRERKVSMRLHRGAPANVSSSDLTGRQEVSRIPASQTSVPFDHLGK
# [5] = target: Tyrosine-protein kinase ZAP-70 (Homo sapiens) (UniProt P43403); assay: Inhibition of recombinant human His-tagged full length ZAP70 expressed in baculovirus expression system using Tyr 07 as substrate at 10 uM incubated for 60 mins by Z'-Lyte assay relative to control
# [6] = target: Serine/threonine-protein kinase N1 (Homo sapiens) (UniProt Q16512); assay: Inhibition of recombinant human GST-tagged full length PRK1 expressed in baculovirus expression system using Ser/Thr 07 as substrate at 10 uM incubated for 60 mins by Z'-lyte assay relative to control
# [7] = target: cAMP-dependent protein kinase catalytic subunit PRKX (Homo sapiens) (UniProt P51817); assay: Inhibition of recombinant human GST-tagged full length PRKX expressed in baculovirus expression system using Ser/Thr 01 as substrate at 10 uM incubated for 60 mins by Z'-lyte assay relative to control
# Sequence of cAMP-dependent protein kinase catalytic subunit PRKX (Homo sapiens) (P51817 whole entry): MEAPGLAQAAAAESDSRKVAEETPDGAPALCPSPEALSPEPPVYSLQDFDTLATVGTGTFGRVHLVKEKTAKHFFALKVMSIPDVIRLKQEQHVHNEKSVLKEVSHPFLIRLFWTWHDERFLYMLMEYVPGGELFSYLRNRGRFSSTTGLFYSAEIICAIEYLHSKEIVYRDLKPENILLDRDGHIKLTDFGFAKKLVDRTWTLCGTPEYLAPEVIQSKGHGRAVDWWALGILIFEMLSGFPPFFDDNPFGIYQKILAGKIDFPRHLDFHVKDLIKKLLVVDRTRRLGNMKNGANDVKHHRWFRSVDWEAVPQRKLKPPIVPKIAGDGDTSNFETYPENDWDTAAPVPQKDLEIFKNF
# [8] = target: Dual specificity protein kinase CLK4 (Homo sapiens) (UniProt Q9HAZ1); assay: Inhibition of tracer 236 binding to recombinant human GST-tagged full length CLK4 expressed in baculovirus expression system at 10 uM incubated for 60 mins by Lanthascreen assay relative to control
# [9] = target: Ribosomal protein S6 kinase alpha-1 (Homo sapiens) (UniProt Q15418); assay: Inhibition of recombinant human His-tagged full length RSK1 expressed in baculovirus expression system using Ser/Thr 06 as substrate at 10 uM incubated for 60 mins by Z'-Lyte assay relative to control
# Sequence of Ribosomal protein S6 kinase alpha-1 (Homo sapiens) (Q15418 whole entry, the tested form may be a part): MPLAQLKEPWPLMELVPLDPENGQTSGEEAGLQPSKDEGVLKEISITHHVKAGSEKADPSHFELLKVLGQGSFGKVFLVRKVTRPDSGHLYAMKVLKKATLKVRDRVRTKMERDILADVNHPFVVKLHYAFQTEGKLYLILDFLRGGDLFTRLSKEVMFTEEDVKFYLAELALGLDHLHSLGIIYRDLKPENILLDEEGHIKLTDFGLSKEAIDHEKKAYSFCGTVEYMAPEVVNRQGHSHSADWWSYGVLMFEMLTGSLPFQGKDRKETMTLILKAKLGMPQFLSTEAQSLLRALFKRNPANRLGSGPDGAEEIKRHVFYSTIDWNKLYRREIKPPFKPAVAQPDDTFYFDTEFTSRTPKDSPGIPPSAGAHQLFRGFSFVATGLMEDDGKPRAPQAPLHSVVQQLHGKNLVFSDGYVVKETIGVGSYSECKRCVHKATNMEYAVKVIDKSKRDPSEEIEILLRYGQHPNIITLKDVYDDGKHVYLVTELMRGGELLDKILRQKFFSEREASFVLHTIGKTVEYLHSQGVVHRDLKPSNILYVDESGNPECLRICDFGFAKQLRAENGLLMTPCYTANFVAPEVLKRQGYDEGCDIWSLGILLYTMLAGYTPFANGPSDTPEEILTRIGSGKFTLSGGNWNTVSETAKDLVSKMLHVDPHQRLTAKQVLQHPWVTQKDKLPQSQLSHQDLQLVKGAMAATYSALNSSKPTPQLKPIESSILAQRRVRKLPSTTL
# [10] = target: Leucine-rich repeat serine/threonine-protein kinase 2 (Homo sapiens) (UniProt Q5S007); assay: Inhibition of recombinant human GST-tagged LRRK2 (970 to 2527 residues) expressed in baculovirus expression system using LRRKtide as substrate at 10 uM incubated for 60 mins by Adapta assay relative to control
# [11] = target: Serine/threonine-protein kinase MARK1 (Homo sapiens) (UniProt Q9P0L2); assay: Inhibition of recombinant human GST-tagged full length MARK1 expressed in baculovirus expression system using Ser/Thr 21 as substrate at 10 uM incubated for 60 mins by Z'-lyte assay relative to control
# Sequence of Serine/threonine-protein kinase MARK1 (Homo sapiens) (Q9P0L2 whole entry, looked up): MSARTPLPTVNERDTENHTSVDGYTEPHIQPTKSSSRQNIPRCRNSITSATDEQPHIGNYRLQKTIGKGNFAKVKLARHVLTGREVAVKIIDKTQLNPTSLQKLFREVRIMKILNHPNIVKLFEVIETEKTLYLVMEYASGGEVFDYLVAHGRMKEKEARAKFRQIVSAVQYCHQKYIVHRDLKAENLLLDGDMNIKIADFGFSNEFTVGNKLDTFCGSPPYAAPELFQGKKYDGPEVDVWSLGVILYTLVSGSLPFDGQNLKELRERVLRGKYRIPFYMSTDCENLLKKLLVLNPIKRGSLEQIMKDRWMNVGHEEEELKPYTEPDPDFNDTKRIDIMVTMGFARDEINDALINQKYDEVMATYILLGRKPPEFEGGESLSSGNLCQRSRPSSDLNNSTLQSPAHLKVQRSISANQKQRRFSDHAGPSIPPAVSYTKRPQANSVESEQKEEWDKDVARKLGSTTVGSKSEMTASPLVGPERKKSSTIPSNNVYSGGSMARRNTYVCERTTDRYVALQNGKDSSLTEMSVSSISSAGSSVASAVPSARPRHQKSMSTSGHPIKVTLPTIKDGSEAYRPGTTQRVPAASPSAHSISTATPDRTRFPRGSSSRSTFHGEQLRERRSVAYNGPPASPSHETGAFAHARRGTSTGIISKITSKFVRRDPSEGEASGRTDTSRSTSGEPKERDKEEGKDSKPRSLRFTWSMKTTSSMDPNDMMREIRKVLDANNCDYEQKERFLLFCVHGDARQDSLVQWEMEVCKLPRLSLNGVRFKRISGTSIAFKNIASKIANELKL
# [12] = Volume of distribution in Sprague-Dawley rat at 0.5 mg/kg, iv or 2 mg/kg, po; assay type: ADME, organism-based; settings: in vivo
# [13] = target: Serine/threonine-protein kinase Nek4 (Homo sapiens) (UniProt P51957); assay: Inhibition of recombinant human GST-tagged full length NEK4 expressed in baculovirus expression system using Ser/Thr 17 as substrate at 10 uM incubated for 60 mins by Z'-lyte assay relative to control
# [14] = target: Tyrosine-protein kinase Fes/Fps (Homo sapiens) (UniProt P07332); assay: Inhibition of recombinant human His-tagged full length FES expressed in baculovirus expression system using Tyr 01 as substrate at 10 uM incubated for 60 mins by Z'-Lyte assay relative to control
# Sequence of Tyrosine-protein kinase Fes/Fps (Homo sapiens) (P07332 whole entry, the tested form may be a part): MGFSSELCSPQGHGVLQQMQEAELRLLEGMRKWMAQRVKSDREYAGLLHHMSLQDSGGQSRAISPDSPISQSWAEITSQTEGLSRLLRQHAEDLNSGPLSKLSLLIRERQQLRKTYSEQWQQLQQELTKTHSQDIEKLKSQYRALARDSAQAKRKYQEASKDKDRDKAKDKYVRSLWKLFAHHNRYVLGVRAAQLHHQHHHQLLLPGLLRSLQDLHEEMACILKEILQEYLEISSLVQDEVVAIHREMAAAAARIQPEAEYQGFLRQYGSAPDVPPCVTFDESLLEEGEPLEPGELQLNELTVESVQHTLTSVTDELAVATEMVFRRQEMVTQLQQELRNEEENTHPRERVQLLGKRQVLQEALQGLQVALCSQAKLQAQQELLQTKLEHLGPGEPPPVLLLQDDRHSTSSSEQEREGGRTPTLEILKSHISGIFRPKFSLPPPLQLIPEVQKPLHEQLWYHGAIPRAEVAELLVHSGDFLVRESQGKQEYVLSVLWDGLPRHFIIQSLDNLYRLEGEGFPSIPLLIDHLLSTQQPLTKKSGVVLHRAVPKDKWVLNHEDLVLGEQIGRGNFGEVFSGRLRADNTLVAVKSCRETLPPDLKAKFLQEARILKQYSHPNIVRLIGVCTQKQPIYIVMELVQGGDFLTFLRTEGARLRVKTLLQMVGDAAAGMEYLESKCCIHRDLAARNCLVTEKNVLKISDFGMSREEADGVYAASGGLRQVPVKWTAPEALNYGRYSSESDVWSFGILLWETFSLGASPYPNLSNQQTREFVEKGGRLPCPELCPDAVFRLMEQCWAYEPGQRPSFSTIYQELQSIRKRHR
# [15] = target: Phosphatidylinositol 3-kinase C2 domain-containing subunit gamma (Homo sapiens) (UniProt O75747); assay: Inhibition of recombinant human N-terminal GST-tagged PI3K-gamma (468 to 1203 residues) expressed in insect expression system using PI lipid kinase substrate mixture as substrate at 10 uM incubated for 60 mins by Adapta assay relative to control
# [16] = target: Insulin-like growth factor 1 receptor (Homo sapiens) (UniProt P08069); assay: Inhibition of recombinant human His-tagged IGF1R (960 to 1397 residues) expressed in baculovirus expression system using Tyr 01 as substrate at 10 uM incubated for 60 mins by Z'-Lyte assay relative to control
# Sequence of Insulin-like growth factor 1 receptor (Homo sapiens) (P08069 31-736 limits assumed): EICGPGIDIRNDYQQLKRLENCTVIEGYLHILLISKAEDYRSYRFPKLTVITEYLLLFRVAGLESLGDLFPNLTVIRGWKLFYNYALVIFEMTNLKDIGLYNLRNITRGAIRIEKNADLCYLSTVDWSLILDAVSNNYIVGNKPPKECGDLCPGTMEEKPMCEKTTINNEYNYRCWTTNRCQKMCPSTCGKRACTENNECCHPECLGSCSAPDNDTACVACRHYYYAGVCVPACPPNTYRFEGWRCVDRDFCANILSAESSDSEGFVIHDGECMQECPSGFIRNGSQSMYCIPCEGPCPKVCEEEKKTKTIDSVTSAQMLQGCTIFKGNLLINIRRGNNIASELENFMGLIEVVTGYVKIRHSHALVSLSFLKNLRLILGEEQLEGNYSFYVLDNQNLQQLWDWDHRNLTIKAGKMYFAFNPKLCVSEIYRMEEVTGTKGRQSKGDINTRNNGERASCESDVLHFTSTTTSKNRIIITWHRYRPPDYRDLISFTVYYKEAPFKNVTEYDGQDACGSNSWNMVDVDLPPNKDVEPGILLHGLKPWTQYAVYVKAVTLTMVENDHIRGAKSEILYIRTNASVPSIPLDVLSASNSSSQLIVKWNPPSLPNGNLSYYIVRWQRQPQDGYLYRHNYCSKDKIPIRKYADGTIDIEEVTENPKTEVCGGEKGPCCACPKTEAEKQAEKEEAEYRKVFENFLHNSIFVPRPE
# Sequence of Insulin-like growth factor 1 receptor (Homo sapiens) (P08069 741-1367 limits assumed): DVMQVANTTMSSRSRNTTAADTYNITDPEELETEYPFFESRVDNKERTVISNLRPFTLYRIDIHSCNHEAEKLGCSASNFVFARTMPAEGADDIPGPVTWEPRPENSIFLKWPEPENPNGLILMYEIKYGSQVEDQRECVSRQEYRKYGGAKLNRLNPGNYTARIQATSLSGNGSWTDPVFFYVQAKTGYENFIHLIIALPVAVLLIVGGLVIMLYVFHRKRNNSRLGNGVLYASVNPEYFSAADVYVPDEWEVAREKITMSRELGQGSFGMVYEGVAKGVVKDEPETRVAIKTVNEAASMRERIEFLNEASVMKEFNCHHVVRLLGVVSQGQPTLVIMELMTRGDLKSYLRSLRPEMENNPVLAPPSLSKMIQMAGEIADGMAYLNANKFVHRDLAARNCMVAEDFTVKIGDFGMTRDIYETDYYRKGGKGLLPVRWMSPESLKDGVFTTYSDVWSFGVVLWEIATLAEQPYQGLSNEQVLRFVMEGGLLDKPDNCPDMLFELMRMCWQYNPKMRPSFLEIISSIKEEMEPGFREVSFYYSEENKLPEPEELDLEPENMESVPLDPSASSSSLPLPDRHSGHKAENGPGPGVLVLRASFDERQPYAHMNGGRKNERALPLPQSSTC
# [17] = target: Mitogen-activated protein kinase 9 (Homo sapiens) (UniProt P45984); assay: Inhibition of recombinant human His-tagged full length JNK2 expressed in baculovirus expression system using Ser/Thr 04 as substrate at 10 uM incubated for 60 mins by Z'-lyte assay relative to control
# [18] = target: Ribosomal protein S6 kinase alpha-3 (Homo sapiens) (UniProt P51812); assay: Inhibition of recombinant human His-tagged full length RSK2 expressed in baculovirus expression system using Ser/Thr 06 as substrate at 10 uM incubated for 60 mins by Z'-Lyte assay relative to control
# [19] = target: Receptor-interacting serine/threonine-protein kinase 2 (Homo sapiens) (UniProt O43353); assay: Inhibition of tracer 178 binding to recombinant human His-tagged RIPK2 (1 to 299 residues) expressed in insect expression system at 10 uM incubated for 60 mins by Lanthascreen assay relative to control
# [20] = target: Death-associated protein kinase 3 (Homo sapiens) (UniProt O43293); assay: Inhibition of recombinant human GST-tagged full length ZIPK expressed in baculovirus expression system using Ser/Thr 13 as substrate at 10 uM incubated for 60 mins by Z'-Lyte assay relative to control
# [21] = target: Fibroblast growth factor receptor 4 (Homo sapiens) (UniProt P22455); assay: Inhibition of recombinant human His-tagged FGFR4 ([…] residues) expressed in baculovirus expression system using Tyr 04 as substrate at 10 uM incubated for 60 mins by Z'-Lyte assay relative to control
# [22] = target: Serine/threonine-protein kinase TBK1 (Homo sapiens) (UniProt Q9UHD2); assay: Inhibition of recombinant human GST-tagged full length TBK1 expressed in insect expression system using Ser/Thr 05 as substrate at 10 uM incubated for 60 mins by Z'-Lyte assay relative to control
# Homo sapiens = organism: Homo sapiens; assay: Inhibition of recombinant human His-tagged PKA (1 to 351 residues) expressed in Escherichia coli expression system using Ser/Thr 01 as substrate at 10 uM incubated for 60 mins by Z'-lyte assay relative to control
# [23] = target: Cytoplasmic tyrosine-protein kinase BMX (Homo sapiens) (UniProt P51813); assay: Inhibition of recombinant human His-tagged full length BMX expressed in baculovirus expression system using Tyr 01 as substrate at 10 uM incubated for 60 mins by Z'-Lyte assay relative to control
smiles,measurement,setting,value
CN1C(=O)[C@@H](NC(=O)c2n[nH]c3ncc(C(F)(F)C(F)(F)F)cc23)COc2ccccc21,inhibition,[1],8.5%
same,inhibition,[2],3.5%
same,inhibition,[3],3.5%
same,inhibition,[4],5%
same,inhibition,[5],-2%
same,inhibition,[6],1%
same,inhibition,[7],4.5%
same,inhibition,[8],18%
same,inhibition,[9],8%
same,inhibition,[10],-0.5%
same,inhibition,[11],-5.5%
same,Vd,[12],2.8 L/kg
same,inhibition,[13],3.5%
same,inhibition,[14],5.5%
same,inhibition,[15],-5%
same,inhibition,[16],-0.5%
same,inhibition,[17],0.5%
same,inhibition,[18],2%
same,inhibition,[19],-1%
same,inhibition,[20],7%
same,inhibition,[21],-7%
same,inhibition,[22],1.5%
same,inhibition,Homo sapiens,-1%
same,inhibition,[23],1.5%
